In US6436908B1, “Use of exogenous β-adrenergic receptor and β-adrenergic receptor kinase gene constructs to enhance myocardial function” (Duke University, priority 1995, dated 2002):
Read-outs that look alike come from different tables or passages of the source. Each block holds one molecule with its values, some of them ahead of it.

Assays:
β1-AR = biological target: T1, β1-AR (Mus musculus, UniProt P34971); experiment: ICI 118,551 competition binding against [125I]cyanopindolol, control heart sarcolemmal membranes, low affinity component
T1 construct: Sarcolemmal membranes were prepared from control mouse hearts; from tissue; host or cells: sarcolemmal membranes of control mouse hearts (A3), and of control and TGβK12 mouse hearts (A4)
T1 sequence (P34971 whole entry): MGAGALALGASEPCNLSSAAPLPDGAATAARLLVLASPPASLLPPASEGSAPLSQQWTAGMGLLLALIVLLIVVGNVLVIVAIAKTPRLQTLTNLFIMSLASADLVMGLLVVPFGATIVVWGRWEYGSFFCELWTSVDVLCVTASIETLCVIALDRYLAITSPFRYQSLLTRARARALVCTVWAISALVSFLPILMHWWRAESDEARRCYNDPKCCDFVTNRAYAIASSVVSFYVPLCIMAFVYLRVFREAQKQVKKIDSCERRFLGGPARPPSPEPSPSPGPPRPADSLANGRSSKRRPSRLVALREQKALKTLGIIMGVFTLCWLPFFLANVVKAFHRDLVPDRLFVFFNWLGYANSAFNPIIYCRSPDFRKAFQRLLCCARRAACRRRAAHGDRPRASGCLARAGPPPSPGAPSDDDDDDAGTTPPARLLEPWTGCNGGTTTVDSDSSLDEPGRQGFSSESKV
Protocol: Myocardial sarcolemmal membranes were prepared by homogenizing whole hearts in ice-cold buffer A [50 mM HEPES (pH 7.3), 150 mM KCl, 5 mM EDTA]. Nuclei and tissue were separated by centrifugation at 800×g for 10 min and the crude supernatant was then centrifuged at 20,000×g for 10 min. The subsequent pellet was resuspended in buffer A and centrifuged at 20,000×g for 10 min. The final pellet was resuspended at a concentration of 2-3 mg protein per ml in buffer B [50 mM HEPES (pH7.3), 5 mM MgCl2].

[1] = test system: left ventricular function; experiment: LV dP/dtmax before and after systemic β2-AR antagonist; assay type: in vivo, mouse
Source text: FIG. 7. Effect of administering β-AR antagonist. […] Asterisks indicate p<0.05, paired Student's T-test.

isolated atria = experiment: Isometric tension development in isolated atria; parameters: species or system mouse; conditions: TG4 atria, doses maximally stimulating controls
Protocol: FIGS. 5A-C. Baseline and maximally stimulated responses in isolated atria. Atria were suspended under optimal resting tension in modified Kreb's bicarbonate solution at 30° C. […]. Data are shown as the mean values±SEM for control animals (n=7 or 8) and TG4 animals (n=5 or 6). In all three responses, the baseline values for the TG4 animals were greater than the baseline in the control animals (* P<0.05 Student's t-test), but not different from either control isoproterenol-stimulated values or from TG4 isoproterenol-stimulated values.
To directly assess the effect of β2-AR overexpression on myocardial inotropy, isometric tension development was determined in isolated, perfused atria. […] In the left atria, basal tension was approximately three times that of the control levels. Baseline isometric tension in the transgenics was not different from the maximal isoproterenol-stimulated tension in control atria. […] To eliminate the possibility that this increased rate might be contributing to the increased tension measured in the transgenic myocardium, experiments were conducted to assess the relationship of rate to developed tension. From a rate of 240 to 360 beats/min. […] All atria studied were weighed, and no significant differences were noted between transgenic and control weights.

[2] = test system: left ventricular function; experiment: In vivo assessment of left ventricular function, TG4 and control mice; parameters: species or system mouse
[3] = test system: left ventricular function; experiment: In vivo assessment of left ventricular function, TGβK12 and TGMini27 mice; parameters: species or system mouse; conditions: for mean LV dP/dtmax (maximum contractility): 500 pg isoproterenol; for mean LV dP/dtmin (maximum LV relaxation): 1000 pg isoproterenol
Protocol: FIG. 12. In vivo assessment of left ventricular function of TGβK12 (n=10) and nontransgenic control mice (n=10). Animals were anesthetized and aortic and left ventricular catheters placed (28). […]; (B) LV dP/dtmin; (C) heart rate (HR); and (D) LV systolic pressure. Data are reported as means±SEM and were analyzed with a two way analysis of variance (ANOVA) with post hoc testing performed using Scheffe's F test (*, P<0.05). […]; (B) dP/dtmin, P<0.05; (C) HR, P<0.01 but not (D) LV systolic pressure, P=ns.
FIG. 13. In vivo assessment of left ventricular function of TGMini27 (n=7) and nontransgenic control mice (n=7). Mice were treated as in FIG. 4 (28) and four parameters are shown; (A) LV dP/dtmax,; (B) LV dP/dtmin; (C) HR; and (D) LV systolic pressure. Data are reported as mean±SEM and were analyzed as in FIG. 4 (*, P<0.05). […]; (B) dP/dtmin, P<0.005; and (D) LV systolic pressure, P<0.005.
Mice were anesthetized with a mixture of ketamine and xylazine (Milano et al., Science 264, 582 (1994)). A cervical incision was made, the trachea intubated and the animal connected to a volume-cycled ventilator. A carotid artery was then cannulated with a flamestretched PE 50 catheter connected to a modified P50 statham transducer. […]. Continuous pressures were recorded on an eight channel chart recorder and in digitized form on computer disk for beat averaging. Ten sequential beats were averaged for each measurement.

adenylyl cyclase = assay type: biochemical, mouse; conditions: for EC50: read-out: EC50 of isoproterenol-stimulated adenylyl cyclase activity; for NaF stimulated cyclase activity, mean (±SD): 10 mM NaF
Protocol: FIG. 4. Adenylyl Cyclase Activity. Membranes were prepared from TG4 hearts and nontransgenic litter mate control hearts as described in FIG. 2. […] Each point on the graph represents the mean±SEM of seven independent experiments each performed in duplicate.
The inotropic response resulting from myocardial β-AR stimulation is mediated through activation of adenylyl cyclase and the intracellular second messenger cAMP. To assess whether the myocardium of transgenic animals overexpressing β2-AR had enhanced adenylyl cyclase activity, myocardial membranes were incubated with [^32P]ATP and the rate of cAMP formation was measured.

Gβγ [4] = experiment: cell-based or functional assay
βARK = experiment: GRK activity of heart extracts, rhodopsin phosphorylation assay; assay type: biochemical, mouse; conditions: TGMini27 heart extracts, 50 μg protein, ~10 pmoles Gβγ, n=5
Gβγ [5] = biological target: Gβγ

- Ki (β1-AR): 390 nM
- effect on the β1-AR binding component (β1-AR; 75 nM ICI 118,551): insignificantly affecting
- share of low affinity binding population (β1 subtype) (β1-AR; control mouse heart sarcolemmal membranes): 75%
Molecule: Cc1ccc(OCC(O)C(C)NC(C)C)c2c1CCC2 (stereo not shown) [ICI 118,551]
- change in elevated baseline LV dP/dtmax ([1]; TG4 transgenic mice, 5 μg systemic, four minutes after administration): Marked decreases
- change in LV dP/dtmax ([1]; control animals): no significant change

Molecule: CC(C)NCC(O)c1ccc(O)c(O)c1 (stereo not shown) [isoproterenol]
- inotropic response of atria (isometric tension) (isolated atria): no further inotropic response
- change in LV dP/dtmax ([2]; control animals, isoproterenol infusion): progressive increases
- effect on blood pressure ([2]; doses greater than 1 nanogram): significant lowering of blood pressure
- left ventricular responses to isoproterenol ([3]; TGMini27 mice versus controls): markedly enhanced
- mean LV dP/dtmax (maximum contractility) ([3]; TGMini27 mice): 10,821 mm Hg per sec
- mean LV dP/dtmin (maximum LV relaxation) ([3]; TGMini27 mice): −8071 mm Hg per second
- inotropic and chronotropic responses to isoproterenol ([3]; TGβK12 animals versus controls): significantly reduced
- mean LV dP/dtmax (maximum contractility) ([3]; TGβK12 mice): 6457 mm Hg per sec
- mean LV dP/dtmin (maximum LV relaxation) ([3]; TGβK12 mice): −4350 mm Hg per second
- EC50 (adenylyl cyclase; TG4 heart membranes): 22 nM
- EC50 (adenylyl cyclase; nontransgenic control heart membranes): 160 nM

- stimulation of rhodopsin phosphorylation upon addition of Gβγ (~10 pmoles), heart extracts from TGMini27 mice (fold over basal) (Gβγ [4]): 2.16
Molecule: βARK1-(495-689) Minigene (from UniProt P21146 495-689)

Molecule: [F-].[Na+] [NaF]
- NaF stimulated cyclase activity, mean (±SD) (adenylyl cyclase; control membranes): 606.4±207.8 pmol cAMP/min/mg protein
- NaF stimulated cyclase activity, mean (±SD) (adenylyl cyclase; transgenic (TG4) membranes): 445.5±165.5 pmol cAMP/min/mg protein

B1: βARK1-(495-689) Minigene: coding sequence for the last 194 amino acids of bovine βARK1; expressed soluble protein, in vivo βARK inhibitor (protein)
chain: GIKLLDSDQELYRNFPLTISERWQQEVAETVFDTINAETDRLEARKKTKNKQLGHEEDYALGKDCIMHGYMSKMGNPFLTQWQRRYFYLFPNRLEWRGEGEAPQSLLTMEEIQSVEETQIKERKCLLLKIRGGKQFVLQCDSDPELVQWKKELRDAYREAQQLVQRVPKMKNKPRSPVVELSKVPLIQRGSANGL
- stimulation of rhodopsin phosphorylation by Gβγ (βARK): 2.16±0.12 fold over basal
- baseline LV dP/dtmax, LV dP/dtmin and LV systolic pressure compared to control animals ([3]; TGMini27 mice, baseline): statistically elevated

B2: myocardial βARK (protein)
chain: MADLEAVLADVSYLMAMEKSKATPAARASKKILLPEPSIRSVMQKYLEDRGEVTFEKIFSQKLGYLLFRDFCLNHLEEAKPLVEFYEEIKKYEKLETEEERVVRSREIFDSYIMKELLACSHPFSKNATEHVQGHLVKKQVPPDLFQPYIEEICQNLRGDVFQKFIESDKFTRFCQWKNVELNIHLTMNDFSVHRIIGRGGFGEVYGCRKADTGKMYAMKCLDKKRIKMKQGETLALNERIMLSLVSTGDCPFIVCMSYAFHTPDKLSFILDLMNGGDLHYHLSQHGVFSEADMRFYAAEIILGLEHMHNRFVVYRDLKPANILLDEHGHVRISDLGLACDFSKKRPHASVGTHGYMAPEVLQKGVAYDSSADWFSLGCMLFKLLRGHSPFRQHKTKDKHEIDRMTLTMAVELPDSFSPELRSLLEGLLQRDVNRRLGCLGRGAQEVKESPFFRSLDWQMVFLQKYPPPLIPPRGEVNAADAFDIGSFDEEDTKGIKLLDSDQELYRNFPLTISERWQQEVAETVFDTINAETDRLEARKKAKNKQLGHEEDYALGKDCIVHGYMSKMGNPFLTQWQRRYFYLFPNRLEWRGEGEAPQSLLTMEEIQSVEETQIKERKCLLLKIRGGKQFVLQCDSDPELVQWKKELRDAYREAQQLVQRVPKMKNKPRSPVVELSKVPLIQRGSANGL
- stimulation of rhodopsin phosphorylation upon addition of Gβγ (~10 pmoles), control heart extracts (Gβγ [5]): 3.02±0.31 fold over basal, n=5
